Measured values: ChEMBL document CHEMBL4049399, “Novel pyrrolopyrimidines as Mps1/TTK kinase inhibitors for breast cancer” (Bioorg Med Chem, 2017)
Values after ≈ are worked out from the molar mass of the structure shown. Active and inactive are the calls of the source. The rule behind the calls is not given here.

Assays:
CAL-51 [1] = assay: Antiproliferative activity against human CAL51 cells assessed as reduction in cell viability after 5 to 7 days by CellTiter 96 aqueous solution assay; assay type: functional, cell-based
HCC1937 = assay: Antiproliferative activity against human HCC1937 cells assessed as reduction in cell viability after 5 to 7 days by CellTiter 96 aqueous solution assay; assay type: functional, cell-based
BT-20 = assay: Antiproliferative activity against human BT20 cells assessed as reduction in cell viability after 5 to 7 days by CellTiter 96 aqueous solution assay; assay type: functional, cell-based
BT-549 = assay: Antiproliferative activity against human BT549 cells assessed as reduction in cell viability after 5 to 7 days by CellTiter 96 aqueous solution assay; assay type: functional, cell-based
MDA-MB-436 = assay: Antiproliferative activity against human MDA-MB-436 cells assessed as reduction in cell viability after 5 to 7 days by CellTiter 96 aqueous solution assay; assay type: functional, cell-based
MDA-MB-468 = assay: Antiproliferative activity against human MDA-MB-468 cells assessed as reduction in cell viability after 5 to 7 days by CellTiter 96 aqueous solution assay; assay type: functional, cell-based
Hs-578T = assay: Antiproliferative activity against human Hs578T cells assessed as reduction in cell viability after 5 to 7 days by CellTiter 96 aqueous solution assay; assay type: functional, cell-based
MDA-MB-231 = assay: Antiproliferative activity against human MDA-MB-231 cells assessed as reduction in cell viability after 5 to 7 days by CellTiter 96 aqueous solution assay; assay type: functional, cell-based
CAMA-1 = assay: Antiproliferative activity against human CAMA1 cells assessed as reduction in cell viability after 5 to 7 days by CellTiter 96 aqueous solution assay; assay type: functional, cell-based
SK-BR-3 = assay: Antiproliferative activity against human SK-BR-3 cells assessed as reduction in cell viability after 5 to 7 days by CellTiter 96 aqueous solution assay; assay type: functional, cell-based
AU565 = assay: Antiproliferative activity against human AU565 cells assessed as reduction in cell viability after 5 to 7 days by CellTiter 96 aqueous solution assay; assay type: functional, cell-based
T47D = assay: Antiproliferative activity against human T47D cells assessed as reduction in cell viability after 5 to 7 days by CellTiter 96 aqueous solution assay; assay type: functional, cell-based
MDA-MB-453 = assay: Antiproliferative activity against human MDA-MB-453 cells assessed as reduction in cell viability after 5 to 7 days by CellTiter 96 aqueous solution assay; assay type: functional, cell-based
MCF7 = assay: Antiproliferative activity against human MCF7 cells assessed as reduction in cell viability after 5 to 7 days by CellTiter 96 aqueous solution assay; assay type: functional, cell-based
BT-474 = assay: Antiproliferative activity against human BT474 cells assessed as reduction in cell viability after 5 to 7 days by CellTiter 96 aqueous solution assay; assay type: functional, cell-based
[2] = biological target: Tyrosine-protein kinase SYK (Homo sapiens, UniProt P43405); assay: Inhibition of human SYK using poly[Glu:Tyr] (4:1) as substrate in presence of [gamma-32P]ATP
[3] = biological target: Non-receptor tyrosine-protein kinase TYK2 (Homo sapiens, UniProt P29597); assay: Inhibition of human TYK2 using KKSRGDYMTMQIG as substrate in presence of [gamma-32P]ATP
Non-receptor tyrosine-protein kinase TYK2, sequence (P29597 whole entry, canonical isoform): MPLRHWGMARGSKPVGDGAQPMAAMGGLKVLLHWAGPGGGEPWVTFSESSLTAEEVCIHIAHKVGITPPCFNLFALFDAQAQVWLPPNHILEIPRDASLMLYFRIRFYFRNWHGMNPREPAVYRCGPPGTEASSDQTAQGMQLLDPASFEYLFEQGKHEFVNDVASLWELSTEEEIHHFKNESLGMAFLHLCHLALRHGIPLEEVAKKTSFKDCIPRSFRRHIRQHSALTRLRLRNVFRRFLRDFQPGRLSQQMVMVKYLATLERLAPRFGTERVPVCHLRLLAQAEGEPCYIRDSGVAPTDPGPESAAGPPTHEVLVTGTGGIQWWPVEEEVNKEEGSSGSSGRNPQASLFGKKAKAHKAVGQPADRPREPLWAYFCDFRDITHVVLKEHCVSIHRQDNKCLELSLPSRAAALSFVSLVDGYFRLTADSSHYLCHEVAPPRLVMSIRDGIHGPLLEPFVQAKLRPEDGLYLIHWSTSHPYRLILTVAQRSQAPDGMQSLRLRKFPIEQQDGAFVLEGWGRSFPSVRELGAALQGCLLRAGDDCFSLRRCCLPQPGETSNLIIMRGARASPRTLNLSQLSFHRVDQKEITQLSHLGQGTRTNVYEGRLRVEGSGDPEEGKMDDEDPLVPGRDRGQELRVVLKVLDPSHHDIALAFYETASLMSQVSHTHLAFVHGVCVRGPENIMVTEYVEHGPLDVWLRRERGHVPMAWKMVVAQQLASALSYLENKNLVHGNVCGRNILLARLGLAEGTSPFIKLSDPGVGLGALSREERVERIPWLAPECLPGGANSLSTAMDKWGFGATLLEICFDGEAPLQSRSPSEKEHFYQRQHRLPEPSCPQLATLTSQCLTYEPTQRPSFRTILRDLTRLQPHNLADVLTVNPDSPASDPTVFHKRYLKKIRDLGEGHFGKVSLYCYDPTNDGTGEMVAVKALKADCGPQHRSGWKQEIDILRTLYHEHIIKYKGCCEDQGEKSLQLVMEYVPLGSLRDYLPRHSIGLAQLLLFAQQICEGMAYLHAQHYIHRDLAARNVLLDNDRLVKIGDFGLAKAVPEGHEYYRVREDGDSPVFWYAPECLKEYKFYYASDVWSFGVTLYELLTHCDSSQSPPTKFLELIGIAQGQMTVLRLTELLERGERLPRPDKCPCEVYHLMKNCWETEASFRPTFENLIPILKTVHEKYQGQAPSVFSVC

[4] = biological target: Phosphatidylinositol 4,5-bisphosphate 3-kinase catalytic subunit beta isoform (Homo sapiens, UniProt P42338); assay: Inhibition of PI3Kbeta (unknown origin)
Phosphatidylinositol 4,5-bisphosphate 3-kinase catalytic subunit beta isoform, sequence (P42338 whole entry, canonical isoform): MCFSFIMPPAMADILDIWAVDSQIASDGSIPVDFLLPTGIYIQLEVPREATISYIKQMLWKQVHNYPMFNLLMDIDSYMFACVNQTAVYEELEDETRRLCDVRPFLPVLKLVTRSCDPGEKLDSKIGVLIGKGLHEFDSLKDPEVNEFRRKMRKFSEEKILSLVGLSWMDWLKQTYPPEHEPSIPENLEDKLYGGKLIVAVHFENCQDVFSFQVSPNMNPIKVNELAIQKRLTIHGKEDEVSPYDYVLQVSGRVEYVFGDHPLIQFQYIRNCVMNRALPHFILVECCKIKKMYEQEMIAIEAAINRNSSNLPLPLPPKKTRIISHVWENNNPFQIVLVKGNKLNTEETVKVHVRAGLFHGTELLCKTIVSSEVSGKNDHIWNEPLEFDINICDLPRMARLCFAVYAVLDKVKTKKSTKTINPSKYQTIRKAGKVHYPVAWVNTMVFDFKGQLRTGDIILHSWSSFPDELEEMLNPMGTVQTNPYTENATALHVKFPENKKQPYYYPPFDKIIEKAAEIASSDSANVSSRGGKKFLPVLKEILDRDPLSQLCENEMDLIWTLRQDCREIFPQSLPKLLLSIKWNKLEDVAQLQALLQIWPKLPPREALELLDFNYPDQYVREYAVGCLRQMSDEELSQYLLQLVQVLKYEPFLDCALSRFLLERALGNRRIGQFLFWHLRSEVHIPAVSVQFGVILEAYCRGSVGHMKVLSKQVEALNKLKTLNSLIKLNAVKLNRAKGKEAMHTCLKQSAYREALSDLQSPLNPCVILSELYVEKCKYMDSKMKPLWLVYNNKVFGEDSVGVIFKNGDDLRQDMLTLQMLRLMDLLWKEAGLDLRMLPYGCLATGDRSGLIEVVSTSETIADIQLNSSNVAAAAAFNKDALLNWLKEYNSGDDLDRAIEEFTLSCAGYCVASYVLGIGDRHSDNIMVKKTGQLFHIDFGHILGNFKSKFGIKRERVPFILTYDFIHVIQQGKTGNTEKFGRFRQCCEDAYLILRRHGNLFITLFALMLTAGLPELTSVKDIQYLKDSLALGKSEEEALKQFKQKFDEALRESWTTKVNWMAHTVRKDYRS

[5] = biological target: T1, Dual specificity protein kinase TTK (Homo sapiens) (UniProt P33981); assay: Inhibition of Mps1/TTK in human CAL51 cells assessed as reduction in centriole assembly during S-phase by measuring increase in BrdU positive cells with two centrioles incubated for 24 hrs followed by BrdU incorporation during last 4 hrs of incubation; assay type: cell-based
T1 sequence (whole entry): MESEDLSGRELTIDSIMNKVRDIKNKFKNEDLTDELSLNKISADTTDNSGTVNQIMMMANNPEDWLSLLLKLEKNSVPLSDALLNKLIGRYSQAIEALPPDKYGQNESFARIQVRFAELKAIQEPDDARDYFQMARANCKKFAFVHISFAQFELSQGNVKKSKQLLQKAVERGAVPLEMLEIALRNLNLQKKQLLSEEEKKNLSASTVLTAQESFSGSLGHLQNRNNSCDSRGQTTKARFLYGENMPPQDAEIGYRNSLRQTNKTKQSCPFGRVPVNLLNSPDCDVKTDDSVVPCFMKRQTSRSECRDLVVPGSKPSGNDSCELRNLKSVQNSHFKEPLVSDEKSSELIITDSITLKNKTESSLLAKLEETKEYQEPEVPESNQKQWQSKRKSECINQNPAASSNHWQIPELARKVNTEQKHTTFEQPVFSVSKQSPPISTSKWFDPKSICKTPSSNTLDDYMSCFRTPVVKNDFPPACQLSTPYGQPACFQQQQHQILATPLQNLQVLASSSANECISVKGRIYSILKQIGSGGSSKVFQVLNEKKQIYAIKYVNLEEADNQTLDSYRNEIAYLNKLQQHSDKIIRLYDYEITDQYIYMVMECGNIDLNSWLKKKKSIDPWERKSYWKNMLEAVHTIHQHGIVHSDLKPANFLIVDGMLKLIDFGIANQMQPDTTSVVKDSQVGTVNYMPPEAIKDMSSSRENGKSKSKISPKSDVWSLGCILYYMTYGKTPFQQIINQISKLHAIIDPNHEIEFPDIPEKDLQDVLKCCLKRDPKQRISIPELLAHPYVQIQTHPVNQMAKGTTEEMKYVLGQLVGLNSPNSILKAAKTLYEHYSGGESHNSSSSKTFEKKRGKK

[6] = biological target: T1, Dual specificity protein kinase TTK (Homo sapiens); assay: Inhibition of Mps1/TTK in human CAL51 cells assessed as reduction in centrosome amplification during S-phase by measuring decrease in cells with more than four centrioles incubated for 24 hrs followed by BrdU incorporation during last 4 hrs of incubation; assay type: cell-based
CAL-51 [7] = assay: Cytotoxicity against human CAL51 cells assessed as reduction in cell viability at 25 uM after 24 hrs by BrdU incorporation assay relative to control; assay type: functional
[8] = biological target: T1, Dual specificity protein kinase TTK (Homo sapiens); assay: Inhibition of Mps1/TTK in human CAL51 cells assessed as spindle assembly checkpoint arrest in response to nocodazole by measuring decrease in cyclin B level up to 10 uM by immunoblotting method; assay type: cell-based
[9] = Solubility of the compound in DMSO by absorption spectrometric method; assay type: physicochemical
[10] = Solubility of the compound in 10:5:10:75 DMSO/Tween80/PEG400/saline by absorption spectrometric method; assay type: physicochemical
[11] = Systemic clearance in ICR mouse at 20 mg/kg, iv by LC-MS/MS analysis; assay type: ADME, organism-based; details: in vivo
[12] = Elimination half-life in ICR mouse at 20 mg/kg, iv by LC-MS/MS analysis; assay type: ADME, organism-based; details: in vivo, read-out: beta t1/2 (converted)
[13] = AUC in ICR mouse at 50 mg/kg, ip by LC-MS/MS analysis; assay type: ADME, organism-based; details: in vivo
CAL-51 [14] = assay: Antitumor activity against human CAL51 cells xenografted in athymic nude mouse assessed as reduction in tumor growth at 10 mg/kg, ip administered once daily measured after 3 to 7 weeks; assay type: functional, organism-based
CAL-51 [15] = assay: Antitumor activity against human CAL51 cells xenografted in athymic nude mouse assessed as reduction in tumor weight at 10 mg/kg, ip administered once daily measured after 7 weeks; assay type: functional, organism-based
Mus musculus [16] = assay: Toxicity in athymic nude mouse assessed as body weight at 10 mg/kg, ip measured immediately (reference value: 20 to 26 g); assay type: organism-based; details: in vivo
Mus musculus [17] = assay: Toxicity in athymic nude mouse assessed as body weight at 10 mg/kg, ip administered once daily for 7 weeks measured at post last dose (reference value: 20 to 26 g); assay type: organism-based; details: in vivo, 1176 h
[18] = biological target: T1, Dual specificity protein kinase TTK (Homo sapiens); details: 1 uM
[19] = biological target: T1, Dual specificity protein kinase TTK (Homo sapiens); details: 1 uM; remark: listed apart in the source
[20] = biological target: T1, Dual specificity protein kinase TTK (Homo sapiens); assay: Inhibition of Mps1/TTK in human MDA-MB-468 cells assessed as cell cycle arrest at mitotic stage by measuring decrease in spindle assembly checkpoint arrest in response to nocodazole by DAPI/Hoechst staining based assay

| IC50 (HCC1937) | IC50 (BT-20) | IC50 (BT-549) | IC50 (MDA-MB-436) | IC50 (MDA-MB-468) | IC50 (MDA-MB-231) | IC50 (SK-BR-3) | IC50 (T47D) | IC50 (MDA-MB-453) | IC50 (MCF7) | IC50 (BT-474) | inhibition [5] | inhibition [6] | inhibition [8] | SMILES | IC50 (CAL-51 [1]) | IC50 (Hs-578T) | IC50 (CAMA-1) | IC50 (AU565) | other results |
| --- | --- | --- | --- | --- | --- | --- | --- | --- | --- | --- | --- | --- | --- | --- | --- | --- | --- | --- | --- |
| 1.1 µM | 1.71 µM | 1.3 µM | 1.23 µM | 0.32 µM | > 10 µM | 0.47 µM | > 10 µM | > 10 µM | 0.3 µM | 0.29 µM |  |  |  | COc1cc(N2CCOCC2)ccc1Nc1nc(Nc2ccccc2S(=O)(=O)C(C)C)c2cc[nH]c2n1 | 0.3 µM | > 10 µM | 0.65 µM | > 10 µM |  |
| 0.84 µM | 0.06 µM | 2.19 µM | 5.23 µM | 1.57 µM | 0.4 µM | 0.75 µM | 0.33 µM | > 10 µM | 0.35 µM | 0.47 µM |  |  |  | COc1ccccc1Nc1nc(Nc2ccccc2S(=O)(=O)C(C)C)c2cc[nH]c2n1 | 1.26 µM | > 10 µM | 0.84 µM | > 10 µM |  |
| 1.02 µM | 0.37 µM |  |  |  | > 10 µM | 0.4 µM | > 10 µM |  | > 10 µM |  | Dose-dependent effect | Dose-dependent effect | Active | COc1cc(N2CCOCC2)ccc1Nc1nc(NC2CCCCC2)c2cc[nH]c2n1 | 0.55 µM | > 10 µM | 0.6 µM | 0.95 µM | IC50 [2]: 153 µM; IC50 [3]: 132 µM; IC50 [4]: 40.6 µM; Activity (CAL-51 [7]): 70%; solubility [9]: 53.4 mg/mL (≈ 126 mM); solubility [10]: 5 mg/mL (≈ 11.8 mM); clearance [11]: 17.5 L/h/kg; half-life [12]: 2.28 h; AUC [13]: 8.46 µg·h/mL; TGI (CAL-51 [14]): Active; Activity (CAL-51 [15]): Active; Activity (Mus musculus [16]): 24 g; Activity (Mus musculus [17]): 26 g; inhibition [18]: Active; inhibition [19]: Active |
| 0.73 µM | 0.35 µM | 0.81 µM | 0.9 µM | 0.19 µM | > 10 µM | > 10 µM | > 10 µM | 0.82 µM | 0.44 µM | > 10 µM | Dose-dependent effect | Dose-dependent effect | Active | COc1cc(N2CCC(O)CC2)ccc1Nc1nc(Nc2ccccc2S(=O)(=O)C(C)C)c2cc[nH]c2n1 | 0.23 µM | > 10 µM | 0.36 µM | > 10 µM | inhibition [20]: Dose-dependent effect |
| > 10 µM | > 10 µM | 1.73 µM | > 10 µM | 1.85 µM | > 10 µM | > 10 µM | > 10 µM | > 10 µM | > 10 µM | > 10 µM |  |  |  | COc1cc(N2CCC(O)CC2)ccc1Nc1cc(Nc2ccccc2S(=O)(=O)C(C)C)c2cc[nH]c2n1 | 2.92 µM | > 10 µM | > 10 µM | > 10 µM |  |
